Read-outs that look alike come from different tables or passages of the source.
Assays:
[1] = Differential scanning calorimetry of the avidin mutants; type: physicochemical; conditions: DSC, 100 mM Na-phosphate buffer pH 7.4
Method: In order to study the thermal stability of the purified avidin mutants, they were subjected to analysis by differential scanning calorimetry. A Nano II differential scanning calorimeter (Calorimetric Science Corporation, Provo, Utah) was used. […] The reference cell was filled with the same buffer that the sample proteins were dissolved in (100 mM Na-phosphate buffer pH 7.4). The thermograms were recorded as a function of temperature, between 25 and 130° C. at a temperature scan rate of 55.6° C./h. The baselines were subtracted and the transition midpoints (Tm) of the samples were calculated using proprietary software provided by the instrument manufacturer.

[2] = Non-reducing SDS-PAGE thermostability, oligomeric forms after boiling; type: physicochemical; conditions: boiled 20 minutes
Method: The heat stability of the AVRs was studied by using an SDS-PAGE-based method (Bayer, E. A., Ehrlich-Rogozinski, S. and Wilchek, M. (1996) Electrophoresis 17, 1319-1324). In this method, each protein sample was divided into two fractions one of which was kept biotin-free and the other was supplemented with an excess of biotin. The samples were then mixed with denaturing SDS-PAGE sample buffer (containing β-mercaptoethanol) and incubated at a given temperature for 20 minutes. After heat treatment, the samples were subjected to SDS-PAGE and visualised by staining with Coomassie brilliant blue. The relative proportions of tetrameric and monomeric forms of the AVR proteins (with avidin as the control) were detected. A similar assay, with β-mercaptoethanol omitted from the sample buffer, was performed to examine the presence of intersubunit disulfide-bridges. Sensitivity to proteinase K was studied both in the absence and in the presence of biotin as described (Laitinen, O. H., Airenne, K. J., Marttila, A. T., Kulik, T., Porkka, E., Bayer, E. A., Wilchek, M. and Kulomaa, M. S. (1999) FEBS Lett. 461, 52-8). The isoelectric point of each AVR was determined by isoelectric focusing as previously reported (Marttila, A. T., Airenne, K. J., Laitinen, O. H., Kulik, T., Bayer, E. A., Wilchek, M. and Kulomaa, M. S. (1998) FEBS Lett. 441, 313-317). […]

[3] = 2-iminobiotin cuvette, cited from earlier work
[4] = 2-iminobiotin surface, values from Hytönen 2003, cited from earlier work

With “wt Avidin: Wild-type chicken avidin (SEQ ID NO 1), purified from chicken egg-white [reference compound]” the Tm ([1]; + biotin (biotin:avidin molar ratio 3:1)) was 118.2 ± 0.1 °C, the Tm ([1]; without biotin) was 85.5 ± 0.1 °C and the “Monomeric form, relative proportion” value [2] was 100 percentage. The Kd ([3]; avidin values from Laitinen 2002 / Marttila 2000, read-out: Kd calculated from the equilibrium response data) was 17 nM, the kass ([3]; avidin values from literature) was “(1.6 ± 0.7) × 10^4 M^−1 s^−1” and the Kd ([3]; avidin values from literature, read-out: Kd calculated directly from the binding curves) was 20 nM. For the same substance, the kass [4] was “(5.5 ± 0.5) × 10^4 M^−1s^−1”, the kdiss [4] was “(1.9 ± 1.4) × 10^−3 s^−1” and the Kd ([4]; read-out: Kd detected directly from the binding curves) was 34 nM. The Kd ([4]; read-out: Kd detected from the equilibrium response data) was 22 nM.

Source: US20060281899A1, “Mutants of biotin binding protein” (priority 2002, published 2006)
